Experiments:
PI3 Kinase α = PI3 Kinase α (Homo sapiens, UniProt P42336); assay: Fluorescence polarization assay for PI3K (PI3 Kinase α); assay type: biochemical; conditions: diC8-PI(4,5)P2 substrate, 25 μM ATP, one hour at 25° C.
PI3 Kinase γ = PI3 Kinase γ (Homo sapiens, UniProt P48736); assay: Fluorescence polarization assay for PI3K (PI3 Kinase γ); assay type: biochemical; conditions: diC8-PI(4,5)P2 substrate, 25 μM ATP, one hour at 25° C.
Chain of PI3 Kinase γ (P48736 whole entry): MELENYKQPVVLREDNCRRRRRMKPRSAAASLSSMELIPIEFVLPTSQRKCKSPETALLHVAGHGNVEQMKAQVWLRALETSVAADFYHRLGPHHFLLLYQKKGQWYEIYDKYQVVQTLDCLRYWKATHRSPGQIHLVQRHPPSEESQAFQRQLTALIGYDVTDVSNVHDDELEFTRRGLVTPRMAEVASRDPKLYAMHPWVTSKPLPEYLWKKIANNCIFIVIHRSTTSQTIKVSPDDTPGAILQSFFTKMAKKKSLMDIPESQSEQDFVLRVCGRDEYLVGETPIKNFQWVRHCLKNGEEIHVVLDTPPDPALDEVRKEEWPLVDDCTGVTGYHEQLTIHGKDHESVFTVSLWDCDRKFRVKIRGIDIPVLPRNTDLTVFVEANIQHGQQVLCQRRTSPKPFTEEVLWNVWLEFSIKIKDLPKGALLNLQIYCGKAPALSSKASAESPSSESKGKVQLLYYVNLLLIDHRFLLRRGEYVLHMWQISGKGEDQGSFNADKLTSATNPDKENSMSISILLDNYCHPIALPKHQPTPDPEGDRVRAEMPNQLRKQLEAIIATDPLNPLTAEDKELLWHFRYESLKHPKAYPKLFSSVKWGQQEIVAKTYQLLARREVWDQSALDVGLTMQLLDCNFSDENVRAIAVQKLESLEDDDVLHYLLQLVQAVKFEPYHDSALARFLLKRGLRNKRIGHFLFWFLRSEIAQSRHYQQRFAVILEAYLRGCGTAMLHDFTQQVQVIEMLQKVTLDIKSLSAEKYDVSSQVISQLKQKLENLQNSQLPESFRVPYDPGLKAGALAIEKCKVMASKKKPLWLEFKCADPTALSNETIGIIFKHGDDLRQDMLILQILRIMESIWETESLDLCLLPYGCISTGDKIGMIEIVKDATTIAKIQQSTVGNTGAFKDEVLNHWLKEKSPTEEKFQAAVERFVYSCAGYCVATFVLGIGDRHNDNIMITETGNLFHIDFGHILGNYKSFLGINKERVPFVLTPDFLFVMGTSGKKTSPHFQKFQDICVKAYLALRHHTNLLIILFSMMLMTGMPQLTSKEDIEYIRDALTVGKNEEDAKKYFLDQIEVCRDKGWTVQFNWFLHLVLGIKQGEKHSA

Chain of PI3 Kinase α (P42336 whole entry): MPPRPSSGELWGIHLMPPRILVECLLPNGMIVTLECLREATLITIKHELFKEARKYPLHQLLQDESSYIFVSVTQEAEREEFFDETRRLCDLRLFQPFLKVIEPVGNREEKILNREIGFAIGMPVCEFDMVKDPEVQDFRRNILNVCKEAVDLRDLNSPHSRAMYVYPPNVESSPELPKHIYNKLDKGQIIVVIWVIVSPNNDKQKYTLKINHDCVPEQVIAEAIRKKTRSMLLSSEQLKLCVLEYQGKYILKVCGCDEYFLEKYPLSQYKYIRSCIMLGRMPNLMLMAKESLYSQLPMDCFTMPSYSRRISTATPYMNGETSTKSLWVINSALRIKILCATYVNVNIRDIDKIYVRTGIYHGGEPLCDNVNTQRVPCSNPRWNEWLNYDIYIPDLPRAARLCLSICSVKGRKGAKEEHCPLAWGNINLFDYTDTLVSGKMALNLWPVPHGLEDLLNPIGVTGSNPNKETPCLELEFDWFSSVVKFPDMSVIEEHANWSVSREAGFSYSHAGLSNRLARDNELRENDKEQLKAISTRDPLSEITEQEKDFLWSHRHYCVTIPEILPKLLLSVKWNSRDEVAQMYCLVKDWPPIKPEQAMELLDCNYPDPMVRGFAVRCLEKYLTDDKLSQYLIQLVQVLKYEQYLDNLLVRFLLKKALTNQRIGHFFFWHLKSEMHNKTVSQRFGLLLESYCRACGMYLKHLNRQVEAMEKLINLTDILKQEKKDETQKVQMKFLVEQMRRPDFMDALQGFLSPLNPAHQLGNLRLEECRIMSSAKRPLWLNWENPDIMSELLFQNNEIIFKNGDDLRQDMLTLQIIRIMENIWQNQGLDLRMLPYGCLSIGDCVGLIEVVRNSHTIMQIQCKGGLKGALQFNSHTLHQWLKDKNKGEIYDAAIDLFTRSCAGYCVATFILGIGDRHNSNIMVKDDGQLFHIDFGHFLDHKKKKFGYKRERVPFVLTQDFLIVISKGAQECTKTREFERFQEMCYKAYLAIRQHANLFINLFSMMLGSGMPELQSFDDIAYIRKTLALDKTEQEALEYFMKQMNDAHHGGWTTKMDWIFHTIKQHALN
Chain of PI3 Kinase α (P27986 whole entry partner): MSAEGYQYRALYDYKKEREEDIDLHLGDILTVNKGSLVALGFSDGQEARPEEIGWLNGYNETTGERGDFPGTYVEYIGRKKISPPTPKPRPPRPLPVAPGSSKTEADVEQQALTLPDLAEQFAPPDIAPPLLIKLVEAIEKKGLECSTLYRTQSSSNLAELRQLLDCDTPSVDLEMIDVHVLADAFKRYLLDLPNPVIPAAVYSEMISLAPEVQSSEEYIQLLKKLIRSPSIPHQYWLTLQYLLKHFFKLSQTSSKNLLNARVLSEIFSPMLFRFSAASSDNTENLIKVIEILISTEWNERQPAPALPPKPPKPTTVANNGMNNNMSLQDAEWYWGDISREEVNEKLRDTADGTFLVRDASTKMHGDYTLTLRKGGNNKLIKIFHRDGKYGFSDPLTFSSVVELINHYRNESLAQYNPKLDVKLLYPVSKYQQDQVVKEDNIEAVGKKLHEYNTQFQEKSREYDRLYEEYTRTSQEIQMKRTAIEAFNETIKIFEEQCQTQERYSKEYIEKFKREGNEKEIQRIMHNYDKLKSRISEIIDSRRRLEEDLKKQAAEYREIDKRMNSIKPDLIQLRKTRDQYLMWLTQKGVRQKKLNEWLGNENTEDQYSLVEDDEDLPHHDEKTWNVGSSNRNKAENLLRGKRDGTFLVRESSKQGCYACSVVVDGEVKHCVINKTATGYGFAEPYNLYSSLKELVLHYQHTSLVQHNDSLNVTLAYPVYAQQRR

| Compound | IC50 (PI3 Kinase α) | IC50 (PI3 Kinase γ) |
| --- | --- | --- |
| 3-{3-[4-(4-Benzylpiperazin-1-yl)butyl]-7-morpholin-4-yl-3H-[1,2,3]triazolo[4,5-d]pyrimidin-5-yl}phenol [Example 206] | 116 nM | 216 nM |
| CC(C)(C)OC(=O)Cn1nnc2c(N3CCOCC3)nc(-c3cccc(CO)c3)nc21 [Example 232, tert-butyl {5-[3-(hydroxymethyl)phenyl]-7-morpholin-4-yl-3H-[1,2,3]triazolo[4,5-d]pyrimidin-3-yl}acetate] | 370 nM | 1950 nM |
| CCN1CCCC1CNC(=O)c1ccc(NC(=O)Nc2ccc(-c3nc(N4CCOCC4)c4nnn(CC)c4n3)cc2)cc1 (centres unmarked) [Example 59, 4-({[4-(3-ethyl-7-morpholin-4-yl-3H-[1,2,3]triazolo[4,5-d]pyrimidin-5-yl)phenyl]carbamoyl}amino)-N-[(1-ethylpyrrolidin-2-yl)methyl]benzamide] | 2.5 nM | 26 nM |
| CNCCNC(=O)Nc1ccc(-c2nc(N3CCOCC3)c3nnn(CC(F)(F)F)c3n2)cc1 [Example 140, 1-[2-(methylamino)ethyl]-3-{4-[7-morpholin-4-yl-3-(2,2,2-trifluoroethyl)-3H-[1,2,3]triazolo[4,5-d]pyrimidin-5-yl]phenyl}urea] | 26.5 nM | 118 nM |
| O=C(Nc1ccccc1)Nc1ccc(-c2nc(N3CCOCC3)c3nnn(CC4CN(Cc5ccccc5)C4)c3n2)cc1 [Example 191, 1-(4-{3-[(1-benzylazetidin-3-yl)methyl]-7-morpholin-4-yl-3H-[1,2,3]triazolo[4,5-d]pyrimidin-5-yl}phenyl)-3-phenylurea] | 91 nM | 329 nM |
| CC(C)n1nnc2c(N3CCOCC3)nc(-c3ccc(NC(=O)Nc4ccncc4)cc3)nc21 [Example 82, 1-[4-(3-isopropyl-7-morpholin-4-yl-3H-[1,2,3]triazolo[4,5-d]pyrimidin-5-yl)-phenyl]-3-pyridin-4-yl-urea] | 5 nM | 21.5 nM |
| COC(=O)c1ccc(Cn2nnc3c(N4CCOCC4)nc(-c4cc(O)cc(F)c4)nc32)cc1 [Example 244, methyl 4-{[5-(3-fluoro-5-hydroxyphenyl)-7-morpholin-4-yl-3H-[1,2,3]triazolo[4,5-d]pyrimidin-3-yl]methyl}benzoate] | 1510 nM | 1610 nM |
| CCn1nnc2c(N3CCOCC3)nc(-c3ccc(NC(=O)Nc4ccc(C(=O)O)cc4)cc3)nc21 [Example 42, 4-({[4-(3-ethyl-7-morpholin-4-yl-3H-[1,2,3]triazolo[4,5-d]pyrimidin-5-yl)phenyl]carbamoyl}amino)benzoic acid] | 10.5 nM | 35.3 nM |
| Nc1ccc(-c2nc(N3CCOCC3)c3nnn(CC(F)(F)F)c3n2)cc1 [Example 133, 4-[7-morpholin-4-yl-3-(2,2,2-trifluoroethyl)-3H-[1,2,3]triazolo[4,5-d]pyrimidin-5-yl]aniline] | 370 nM | 1380 nM |
| Nc1ncc(CN2CCC(n3nnc4c(N5CCOCC5)nc(-c5cncc(O)c5)nc43)CC2)s1 [Example 171, 5-(3-{1-[(2-amino-1,3-thiazol-5-yl)methyl]piperidin-4-yl}-7-morpholin-4-yl-3H-[1,2,3]triazolo[4,5-d]pyrimidin-5-yl)pyridin-3-ol] | 76.5 nM | 144 nM |
| CC(C)n1nnc2c(N3CCOCC3)nc(-c3ccc(NC(=O)Nc4ccc(N5CCOCC5)cc4)cc3)nc21 [Example 85, 1-[4-(3-Isopropyl-7-morpholin-4-yl-3H-[1,2,3]triazolo[4,5-d]pyrimidin-5-yl)-phenyl]-3-(4-morpholin-4-yl-phenyl)-urea] | 25 nM | 78 nM |
| O=C(Cc1ccccc1)N1CCN(CCn2nnc3c(N4CCOCC4)nc(-c4cccc(O)c4)nc32)CC1 [Example 104, 3-(7-morpholin-4-yl-3-{2-[4-(phenylacetyl)piperazin-1-yl]ethyl}-3H-[1,2,3]triazolo[4,5-d]pyrimidin-5-yl)phenol] | 1170 nM | 3030 nM |
| CCn1nnc2c(N3CCOCC3)nc(-c3ccc(NC(=O)Nc4ccc(C(=O)NCCN(C)C)cc4)cc3)nc21 [Example 43, N-[2-(dimethylamino)ethyl]-4-({[4-(3-ethyl-7-morpholin-4-yl-3H-[1,2,3]triazolo[4,5-d]pyrimidin-5-yl)phenyl]carbamoyl}amino)benzamide] | 1 nM | 18 nM |

Other lines, results leading:

| IC50 (PI3 Kinase α) | IC50 (PI3 Kinase γ) | Compound |
| --- | --- | --- |
| 941 nM | 2770 nM | CC(C)CN1CCN(CCn2nnc3c(N4CCOCC4)nc(-c4cccc(O)c4)nc32)CC1 [Example 108, 3-{3-[2-(4-isobutylpiperazin-1-yl)ethyl]-7-morpholin-4-yl-3H-[1,2,3]triazolo[4,5-d]pyrimidin-5-yl}phenol] |
| 439 nM | 2290 nM | Oc1cccc(-c2nc(N3CCOCC3)c3nnn(CCN4CCN(Cc5cccnc5)CC4)c3n2)c1 [Example 111, 3-(7-morpholin-4-yl-3-{2-[4-(pyridin-3-ylmethyl)piperazin-1-yl]ethyl}-3H-[1,2,3]triazolo[4,5-d]pyrimidin-5-yl)phenol] |
| 1820 nM | 4330 nM | Nc1ncc(-c2nc(N3CCOCC3)c3nnn(C4CCN(Cc5ccccc5)CC4)c3n2)cn1 [Example 2, 5-[3-(1-benzylpiperidin-4-yl)-7-morpholin-4-yl-3H-[1,2,3]triazolo[4,5-d]pyrimidin-5-yl]pyrimidin-2-amine] |
| 67 nM | 735 nM | Oc1cccc(-c2nc(N3CCOCC3)c3nnn(C4CCN(Cc5ccccn5)CC4)c3n2)c1 [Example 149, 3-{7-morpholin-4-yl-3-[1-(pyridin-2-ylmethyl)piperidin-4-yl]-3H-[1,2,3]triazolo[4,5-d]pyrimidin-5-yl}phenol] |
| 335 nM | 4030 nM | CN(C)CCCNC(=O)c1ccc(Cn2nnc3c(N4CCOCC4)nc(-c4cccc(O)c4)nc32)cc1 [Example 215, N-[3-(dimethylamino)propyl]-4-{[5-(3-hydroxyphenyl)-7-morpholin-4-yl-3H-[1,2,3]triazolo[4,5-d]pyrimidin-3-yl]methyl}benzamide] |
| 100 nM | 618 nM | CNCCCCn1nnc2c(N3CCOCC3)nc(-c3cccc(O)c3)nc21 [Example 203, 3-{3-[4-(Methylamino)butyl]-7-morpholin-4-yl-3H-[1,2,3]triazolo[4,5-d]pyrimidin-5-yl}phenol] |
| 121 nM | 667 nM | Oc1cccc(-c2nc(N3CCOCC3)c3nnn(C4CCN(Cc5ccccc5)CC4)c3n2)c1 [Example 1, 3-[3-(1-benzylpiperidin-4-yl)-7-morpholin-4-yl-3H-[1,2,3]triazolo[4,5-d]pyrimidin-5-yl]phenol] |
| 75 nM | 261 nM | Oc1cncc(-c2nc(N3CCOCC3)c3nnn(C4CCN(Cc5ccc(F)c(F)c5)CC4)c3n2)c1 [Example 18, 5-{3-[1-(3,4-difluorobenzyl)piperidin-4-yl]-7-morpholin-4-yl-3H-[1,2,3]triazolo[4,5-d]pyrimidin-5-yl}pyridin-3-ol] |
| 132 nM | 154 nM | OCc1cccc(-c2nc(N3CCOCC3)c3nnn(CCCN4CCCC4)c3n2)c1 [Example 10, {3-[7-morpholin-4-yl-3-(3-pyrrolidin-1-ylpropyl)-3H-[1,2,3]triazolo[4,5-d]pyrimidin-5-yl]phenyl}methanol] |

Source: patent US20090181963A1, “3H-[1,2,3]TRIAZOLO[4,5-D]PYRIMIDINE COMPOUNDS, THEIR USE AS mTOR KINASE AND PI3 KINASE INHIBITORS, AND THEIR [sequence]” (Wyeth, priority 2008, published 2009)
